MIC, MIC50 and MIC90 data for one compound are collected here from patent publication US12544395B2, “Combination compositions comprising a beta-lactamase inhibitor and uses thereof” (priority 2018, dated 2026).

Holding throughout (type): cell-based
One assay relates to E. coli 1924. In words: Broth microdilution MIC (strain enzymes: TEM-12). Particulars: Escherichia coli, 1924; alone; read-out: MIC of ceftibuten (CTB). (Dilution methods test growth across graded concentrations, often in twofold steps.)
Another assay concerns E. coli 2150. In words: Broth microdilution MIC (strain enzymes: SHV-3, TEM-1). Particulars: Escherichia coli, 2150; alone; read-out: MIC of ceftibuten (CTB).
The subject of a further assay is E. coli 3327. In words: Broth microdilution MIC (strain enzymes: TEM-1, SHV-12). Particulars: Escherichia coli, 3327; alone; read-out: MIC of ceftibuten (CTB).
A further assay has as its system E. coli ESBL 2. In words: Broth microdilution MIC (strain enzymes: TEM-1). Particulars: Escherichia coli, ESBL2; alone; read-out: MIC of ceftibuten (CTB).
In another assay the test system is E. coli ESBL 4. The assay can be described thus: Broth microdilution MIC (strain enzymes: CTX-M15, TEM-1). Particulars: Escherichia coli, ESBL4; alone; read-out: MIC of ceftibuten (CTB).
For another assay, the system named is E. coli SI-AIRT-4. The assay can be described thus: Broth microdilution MIC (strain enzymes: TEM-1). Particulars: Escherichia coli, SIAIRT4; alone; read-out: MIC of ceftibuten (CTB).
Another assay relates to E. coli SI-LP377. In words: microbe, parasite or virus in culture. Particulars: Escherichia coli, SILP377, read-out: MIC of ceftibuten (CTB).
Another assay deals with E. coli SI-NO36. In words: Broth microdilution MIC (strain enzymes: SHV-11, TEM-1). Particulars: Escherichia coli, SINO36; alone; read-out: MIC of ceftibuten (CTB).
For another assay, the system named is E. coli SI-PBLII. The assay can be described thus: Broth microdilution MIC (strain enzymes: CTX-M2, TEM-1). Particulars: Escherichia coli; alone; read-out: MIC of ceftibuten (CTB).
Another assay deals with E. coli 25922. In words: Broth microdilution MIC (strain enzymes: None detected). Particulars: Escherichia coli, 25922; alone; read-out: MIC of ceftibuten (CTB).
The next assay concerns K. oxytoca 496 #2. In words: Broth microdilution MIC (strain enzymes: SHV-105, TEM-1). Particulars: Klebsiella oxytoca; alone; read-out: MIC of ceftibuten (CTB).
The next assay relates to K. pneumoniae 3151. The assay can be described thus: Broth microdilution MIC (strain enzymes: SHV-12, TEM-1). Particulars: Klebsiella pneumoniae, 3151; alone; read-out: MIC of ceftibuten (CTB).
The next assay has as its system K. pneumoniae 115468. In words: Broth microdilution MIC (strain enzymes: TEM-1). Particulars: Klebsiella pneumoniae, 115468; alone; read-out: MIC of ceftibuten (CTB).
Another assay deals with K. pneumoniae 11/23 LF#2. The assay can be described thus: microbe, parasite or virus in culture. Particulars: Klebsiella pneumoniae, read-out: MIC of ceftibuten (CTB).
Another assay concerns K. pneumoniae ESBL 10. In words: Broth microdilution MIC (strain enzymes: SHV-12, TEM-1). Particulars: Klebsiella pneumoniae, ESBL10; alone; read-out: MIC of ceftibuten (CTB).
The test system of another assay is K. pneumoniae ESBL 7 #2. In words: Broth microdilution MIC (strain enzymes: SHV-12, CTX-M15, TEM-1). Particulars: Klebsiella pneumoniae; alone; read-out: MIC of ceftibuten (CTB).
The test system of the next assay is K. pneumoniae KI (KCl). The assay can be described thus: Broth microdilution MIC (strain enzymes: TEM-10). Particulars: Klebsiella pneumoniae; alone; read-out: MIC of ceftibuten (CTB).
A further assay deals with K. pneumoniae KP 3. The assay can be described thus: Broth microdilution MIC (strain enzymes: SHV-1, TEM-1). Particulars: Klebsiella pneumoniae, KP3; alone; read-out: MIC of ceftibuten (CTB).
The subject of the next assay is K. pneumoniae KP 4. In words: Broth microdilution MIC (strain enzymes: SHV-2a, SHV-5, TEM-1). Particulars: Klebsiella pneumoniae, KP4; alone; read-out: MIC of ceftibuten (CTB).
For a further assay, the system named is K. pneumoniae KP 8. The assay can be described thus: Broth microdilution MIC (strain enzymes: TEM-10, TEM-1, CTX-M15). Particulars: Klebsiella pneumoniae, KP8; alone; read-out: MIC of ceftibuten (CTB).
Assay [1] concerns panel of ESBL-producing Enterobacteriaceae (40 strains). In words: Broth microdilution MIC50/MIC90 summary over the panel.

As usually defined, the MIC50 is an inhibitory concentration at the 50% level, which refers to growth in some studies and to a panel of isolates in others. By MIC90 is commonly meant the lowest concentration that inhibits either 90% of growth or 90% of the strains tested, depending on the study.

Each structure is given as a SMILES string. Converted amounts (≈) assume the structure as drawn.

As to `Nc1nc(/C(=C/CC(=O)O)C(=O)N[C@@H]2C(=O)N3C(C(=O)O)=CCS[C@H]23)cs1` [Ceftibuten, ceftibuten, reference compound], the MIC with E. coli 1924 was 0.5 µg/mL; in the assay with E. coli 2150 it was 0.5 µg/mL; in the assay with E. coli 3327, 8 µg/mL; in the assay with E. coli ESBL 2, 8 µg/mL; in the assay on E. coli ESBL 4 it was over 32 µg/mL; with E. coli SI-AIRT-4, 0.5 µg/mL. The MIC is 4 µg/mL in the assay on E. coli SI-LP377; 0.5 µg/mL with E. coli SI-NO36; 0.5 µg/mL with E. coli SI-PBLII; 0.25 µg/mL in the assay on E. coli 25922; 8 µg/mL in the assay on K. oxytoca 496 #2; over 32 µg/mL in the assay with K. pneumoniae 3151. In addition, the MIC was 8 µg/mL in the assay on K. pneumoniae 115468; 2 µg/mL in the assay with K. pneumoniae 11/23 LF#2; 16 µg/mL in the assay with K. pneumoniae ESBL 10; over 32 µg/mL in the assay on K. pneumoniae ESBL 7 #2; 1 µg/mL in the assay on K. pneumoniae KI (KCl); 2 µg/mL with K. pneumoniae KP 3. Moreover, the MIC in the assay with K. pneumoniae KP 4 came to 32 µg/mL; in the assay with K. pneumoniae KP 8 it was 0.25 µg/mL. The MIC50 in assay [1] (read-out: Ceftibuten MIC50) turned out to be 8 µg/mL (≈ 19.5 µM). For the same compound, in assay [1] (read-out: Ceftibuten MIC90), the MIC90 is over 32 µg/mL.
